“And” between values parts separate entries of the source, which are not always exact repeats. Identical values can stand only once. Like-named read-outs stand apart in the source and are kept apart here. Where a SMILES comes first, the peptide text is derived from it. Bridges are numbered along the chain shown (N, C = ends). [ ]: non-standard residue; d: D form.

In series [1] the test system is male rats. In words: rat-tail flick test of D'Amour and Smith. The series is classed as in vivo.
Series [2] concerns male rats. Put plainly: rat-tail flick test of D'Amour and Smith. Type of series: in vivo. Particulars: for Positive Responses / Total Possible Responses: all time periods. Here is the method: The holders were situated so that a high intensity light beam would shine on the tip of the rats tail. The light beam intensity was adjusted so that normal rats respond by removing their tails from the light stimulus within from 3 to 8 seconds. The average of three time readings for removal of a rats tail from the light beam, taken 20 minutes apart serves as a pre-drug control. The rats were selected for use based upon control readings that agreed within one second. The compounds of this invention were then administered intravenously and the test performed at 15, 30 and 60 minutes to determine the animals reaction time which was compared with the control average and tested for significance. The number of rats showing analgesia at each time period out of the total group for each dose administered is noted as a ratio and the number of positive responses observed is relative to the total number of challenges for each group of rats.
A general note: Hot-plate and tail-flick tests time the reaction to a heat stimulus.

The test system of another series is mice. As to conditions: central administration; cited from earlier work.
For series [3] the following is noted: administered peripherally; cited from earlier work.
The test system of series [4] is rats. As to conditions: cited from earlier work; for analgesia: injection in the brain ventricle in rats.
For series [5], the system named is rats. As to conditions: peripheral (i.v.); cited from earlier work.
The test system of the next series is opiate receptor. In words: opiate receptor binding affinity (method of Chang et al.). Particulars: two assays. How it is done: The opiate receptor binding affinity of the compound of Example 2 was determined following the method of Chang et al., Life Sciences, 18, 1473-82(1976).
For series [6] the following is noted: central administration; cited from earlier work.

`NC(=O)[C@@H]1CSSC[C@@H](NC(=O)[C@@H](N)Cc2ccc(O)cc2)C(=O)NCC(=O)N[C@@H](Cc2ccccc2)C(=O)N1` [Example 3, L-Tyrosyl-D-Cysteinyl-glycyl-L-phenylalanyl-L-cysteinyl amide cyclic (2-5) disulfide]: the “Positive Responses / Total Possible Responses” value in the series on male rats [1] (1 mg/kg iv, all time periods) is recorded as 7/18; in the series on male rats [2] (5 mg/kg iv), 15/18. Besides, the “No. Analgesic / Total No. Tested” value is 5/6 in the series on male rats [1] (5 mg/kg iv, 30 minutes); 4/6 in the series with male rats [2] (1 mg/kg iv, 15 minutes); 2/6 in the series on male rats [2] (1 mg/kg iv, 30 minutes); 1/6 in the series with male rats [2] (1 mg/kg iv, 60 minutes); 6/6 in the series with male rats [2] (5 mg/kg iv, 15 minutes); 4/6 in the series on male rats [2] (5 mg/kg iv, 60 minutes). Besides, in the series with male rats [2] (5 mg/kg iv), the “Comments: respiratory depression” value was 3/6 moderate to severe respiratory.
For H-Tyr-D-Ala-Gly-Phe-D-Leu-OH, the “antinociceptive and behavioral effects” value in the series with mice is “exhibit antinociceptive and behavioral effects”; with rats [4] (central administration, rats) it was “exhibit antinociceptive and behavioral effects”. Besides, the “analgesic activity on peripheral administration” value in series [3] is “exhibit peripheral analgesic activity”.
“H-Tyr-Gly-Gly-Phe-Leu-OH [leucine-enkephalin]”: the analgesia result in the series on rats [4] is reported as “induce a profound analgesia”.
Take `CN1C(=O)CNC(=O)[C@H](NC(=O)[C@@H](N)Cc2ccc(O)cc2)CSSC[C@H](C(N)=O)NC(=O)[C@@H]1Cc1ccccc1` [Example 4, L-Tyrosyl-D-cysteinyl-glycyl-N-methyl-L-phenylalanyl-D-cysteinylamide cyclic (2-5) disulfide]: the “No. Analgesic / Total No. Tested” value with male rats [1] (5 mg/kg iv, 30 minutes) is listed as 4/6; in the series with male rats [2] (5 mg/kg iv, 15 minutes), 5/6; in the series on male rats [2] (5 mg/kg iv, 60 minutes), 3/6. Also, the “Comments: respiratory depression” value in the series on male rats [2] (5 mg/kg iv) is 3/6 respiratory depression. Also, in the series on male rats [2] (5 mg/kg iv), the “Positive Responses / Total Possible Responses” value is reported as 12/18.
As to H-Y[dM]GFP-NH2, the analgesic activity result with rats [5] is reported as “peripheral (i.v.) analgesic activity”.
With H-Tyr-D-Ala-Gly-Phe-D-Met-NH2, the analgesic activity entry with rats [4] (centrally administered, rats) was “produced analgesic activity”.
In the case of `NC(=O)[C@H]1CSSC[C@@H](NC(=O)[C@@H](N)Cc2ccc(O)cc2)C(=O)NCC(=O)N[C@@H](Cc2ccccc2)C(=O)N1` [Example 2, L-Tyrosyl-D-cysteinyl-glycyl-L-phenylalanyl-D-cysteinyl amide cyclic (2-5) disulfide], the “displacement potency relative to morphine” value in the series with opiate receptor was 100 times that of morphine and 109 times that of morphine. For the same molecule, the “No. Analgesic / Total No. Tested” value in the series on male rats [1] (0.1 mg/kg iv, 15 minutes) is 2/6; in the series on male rats [1] (0.1 mg/kg iv, 30 minutes), 0/6; in the series on male rats [1] (0.1 mg/kg iv, 60 minutes) it was 0/6; in the series on male rats [1] (0.5 mg/kg iv, 15 minutes), 3/6 and 4/6; with male rats [1] (0.5 mg/kg iv, 30 minutes), 2/6 and 3/6; with male rats [1] (5 mg/kg iv, 30 minutes), 5/5. Further, the “No. Analgesic / Total No. Tested” value in the series on male rats [1] (5 mg/kg s.c., 15 minutes) is 4/6; in the series on male rats [2] (0.5 mg/kg iv, 60 minutes) it was 1/6 and 2/6; with male rats [2] (1 mg/kg iv, 15 minutes), 4/5 and 4/6; in the series with male rats [2] (1 mg/kg iv, 30 minutes), 4/4 and 5/6; in the series on male rats [2] (1 mg/kg iv, 60 minutes) it was 2/3 and 3/6; in the series with male rats [2] (5 mg/kg iv, 15 minutes), 5/5. Also, the “No. Analgesic / Total No. Tested” value in the series on male rats [2] (5 mg/kg iv, 60 minutes) is reported as 4/4. In addition, the “Positive Responses / Total Possible Responses” value in the series on male rats [1] (0.1 mg/kg iv, all time periods) is 2/18; in the series on male rats [1] (0.5 mg/kg iv, all time periods) it was 6/10 and 9/18; in the series on male rats [1] (1 mg/kg iv, all time periods) it was 10/12 and 12/18; with male rats [1] (5 mg/kg s.c.), 7/24; with male rats [2] (5 mg/kg iv), 14/14. In addition, the “Comments: respiratory depression” value was 1/6 slight respiratory depression in the series on male rats [1] (0.5 mg/kg iv); 2/3 severe respiratory depression and Slight depression in the series on male rats [1] (1 mg/kg iv); 4/4 Respiration very depressed in the series with male rats [2] (5 mg/kg iv). In addition, the “Comments: dead” value with male rats [1] (1 mg/kg iv) was 3/6; with male rats [1] (5 mg/kg iv), 2/6.
`CN[C@@H](Cc1ccc(O)cc1)C(=O)N[C@@H]1CSSC[C@H](C(N)=O)NC(=O)[C@H](Cc2ccccc2)NC(=O)CNC1=O` [Example 6, N-Methyl-L-tyrosyl-D-cysteinyl-glycyl-L-phenylalanyl-D-cysteinylamide cyclic (2-5) disulfide]: the “Positive Responses / Total Possible Responses” value was 14/18 in the series with male rats [1] (1 mg/kg iv, all time periods) and 13/13 in the series with male rats [2] (5 mg/kg iv). Moreover, the “Comments: dead” value with male rats [1] (5 mg/kg iv) was 3. Further, the “No. Analgesic / Total No. Tested” value is 4/4 with male rats [1] (5 mg/kg iv, 30 minutes); 6/6 in the series on male rats [2] (1 mg/kg iv, 15 minutes); 5/6 with male rats [2] (1 mg/kg iv, 30 minutes); 3/6 in the series with male rats [2] (1 mg/kg iv, 60 minutes); 6/6 in the series on male rats [2] (5 mg/kg iv, 15 minutes); 3/3 in the series with male rats [2] (5 mg/kg iv, 60 minutes). The “Comments: respiratory depression” value with male rats [2] (5 mg/kg iv) was 3/3 respiratory depression.
`N=C(N)NCCC[C@H](N)C(=O)N[C@@H](Cc1ccc(O)cc1)C(=O)N[C@@H]1CSSC[C@H](C(N)=O)NC(=O)[C@H](Cc2ccccc2)NC(=O)CNC1=O` [Example 5, L-Arginyl-L-tyrosyl-D-cysteinyl-glycyl-L-phenylalanyl-D-cysteinylamide cyclic (3-6) disulfide] (H-RY[dC]GF[dC]-NH2; disulfide 3-6): the “No. Analgesic / Total No. Tested” value in the series on male rats [1] (0.5 mg/kg iv, 15 minutes) is reported as 2/6; with male rats [1] (0.5 mg/kg iv, 30 minutes), 2/6; with male rats [1] (5 mg/kg iv, 30 minutes), 5/5; in the series with male rats [2] (0.5 mg/kg iv, 60 minutes) it was 0/6; in the series on male rats [2] (1 mg/kg iv, 15 minutes), 4/6; in the series with male rats [2] (1 mg/kg iv, 30 minutes) it was 3/6. In addition, the “No. Analgesic / Total No. Tested” value is recorded as 2/6 in the series with male rats [2] (1 mg/kg iv, 60 minutes); 6/6 with male rats [2] (5 mg/kg iv, 15 minutes); 5/5 in the series with male rats [2] (5 mg/kg iv, 60 minutes). In addition, the “Positive Responses / Total Possible Responses” value was 4/18 with male rats [1] (0.5 mg/kg iv, all time periods); 9/18 in the series with male rats [1] (1 mg/kg iv, all time periods); 16/16 in the series on male rats [2] (5 mg/kg iv). The “Comments: dead” value in the series on male rats [1] (5 mg/kg iv) was 1. The “Comments: respiratory depression” value in the series with male rats [2] (5 mg/kg iv) is reported as 3/5 respiratory depression.
As to H-Tyr-D-Ala-Gly-Phe-Met-NH2, the analgesia result in series [6] was “long lasting analgesic”.
As to “H-Tyr-Gly-Gly-Phe-Met-OH [methionine-enkephalin]”, the analgesia entry with rats [4] was “induce a profound analgesia”.

Source of the values: US4148786A, “Analgesic polypeptide” (American Home Products Corporation, priority 1978, dated 1979).
